Data published in patent US20230024302A1, “2,3,5-TRISUBSTITUTED PYRAZOLO[1,5-A]PYRIMIDINE COMPOUNDS” (Arcus Biosciences, Inc., priority 2019, published 2023).

Legend:
[1] = target: T1, PI3Kγ (p120γ) (Homo sapiens, UniProt P48736); test: Inhibition of PI3K kinase activity (ADP Glo), PI3Kγ; settings: Table 1, p120γ, read-out: biochemical potency (PI3Kγ IC50)
T1 construct: purchased Promega V1761
Outline: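 Recombinant p120γ (8 nM, 2× stock) was preincubated with compound for 1 h at rt in HEPES pH 7.4, NaCl, MgCl2 and 0.05% BSA. Reaction was started with PIP2 (0.1 mg/ml, 2×) and ATP (50 μM, 2×) and ran 60 min at rt. ADP formed was read by ADP-Glo luminescence, and IC50 came from a 4-parameter fit.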

[2] = target: T2, PI3Kγ (Homo sapiens, UniProt P48736); test: PI3Kγ cellular assay in THP-1 cells (AKT pS473 AlphaLISA); format: cell-based; settings: Table 1, rhMCP-1 stimulated AKT pS473, read-out: cellular potency (PI3Kγ IC50)
T2 construct: host or cells: THP-1
T2 sequence (P48736 whole entry): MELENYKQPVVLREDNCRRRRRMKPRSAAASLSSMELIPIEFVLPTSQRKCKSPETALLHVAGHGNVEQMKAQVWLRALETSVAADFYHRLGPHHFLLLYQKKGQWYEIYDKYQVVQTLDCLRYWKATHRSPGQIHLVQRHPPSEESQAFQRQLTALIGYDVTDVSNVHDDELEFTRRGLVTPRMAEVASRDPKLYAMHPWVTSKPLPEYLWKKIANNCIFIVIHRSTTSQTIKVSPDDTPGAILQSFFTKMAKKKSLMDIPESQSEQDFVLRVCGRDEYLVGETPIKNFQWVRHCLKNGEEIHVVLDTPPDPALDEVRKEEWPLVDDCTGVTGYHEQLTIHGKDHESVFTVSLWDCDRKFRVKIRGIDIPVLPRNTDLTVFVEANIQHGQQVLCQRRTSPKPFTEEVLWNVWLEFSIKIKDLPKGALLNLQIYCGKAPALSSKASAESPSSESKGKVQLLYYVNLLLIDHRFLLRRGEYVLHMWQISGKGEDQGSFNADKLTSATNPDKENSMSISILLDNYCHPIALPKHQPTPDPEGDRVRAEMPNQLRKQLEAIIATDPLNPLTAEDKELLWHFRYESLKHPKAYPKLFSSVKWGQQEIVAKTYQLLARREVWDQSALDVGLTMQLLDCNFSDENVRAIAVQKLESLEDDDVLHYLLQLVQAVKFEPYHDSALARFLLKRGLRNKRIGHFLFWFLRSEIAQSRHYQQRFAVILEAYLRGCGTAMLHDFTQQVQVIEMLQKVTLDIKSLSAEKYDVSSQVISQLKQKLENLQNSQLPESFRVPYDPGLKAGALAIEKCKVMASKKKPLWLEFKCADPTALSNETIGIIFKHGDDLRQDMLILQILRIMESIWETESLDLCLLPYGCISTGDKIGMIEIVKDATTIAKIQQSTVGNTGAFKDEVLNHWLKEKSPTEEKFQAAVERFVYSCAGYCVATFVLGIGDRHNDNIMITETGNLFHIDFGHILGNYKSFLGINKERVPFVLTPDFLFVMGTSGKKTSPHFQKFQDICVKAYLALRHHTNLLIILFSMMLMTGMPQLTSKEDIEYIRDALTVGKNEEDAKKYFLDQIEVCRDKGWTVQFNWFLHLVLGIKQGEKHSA
Outline: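 Serum-starved THP-1 cells (1.8×10^5/well, serum-free DMEM) treated with compounds from 4 nM to 30 μM in 2% DMSO, then stimulated and lysed.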

T1 sequence (P48736 whole entry): as above

| SMILES | IC50 [1] [nM] | IC50 [2] [nM] |
| --- | --- | --- |
| C[C@H](CO)NC(=O)c1c(N)nn2ccc(-c3cc4c(c(NS(C)(=O)=O)c3)C(=O)N([C@@H](C)C(F)(F)F)C4)nc12 [Example 118, 2-Amino-N-[(2R)-1-hydroxypropan-2-yl]-5-{7-methanesulfonamido-1-oxo-2-[(2S)-1,1,1-trifluoropropan-2-yl]-2,3-dihydro-1H-isoindol-5-yl}pyrazolo[1,5-a]pyrimidine-3-carboxamide] | < 100 | < 100 |
| CC[C@H](CO)NC(=O)c1c(N)nn2ccc(-c3cc4c(c(NS(C)(=O)=O)c3)C(=O)N([C@@H](C)C(F)(F)F)C4)nc12 [Example 119, 2-Amino-N-[(2R)-1-hydroxybutan-2-yl]-5-{7-methanesulfonamido-1-oxo-2-[(2S)-1,1,1-trifluoropropan-2-yl]-2,3-dihydro-1H-isoindol-5-yl}pyrazolo[1,5-a]pyrimidine-3-carboxamide] | < 100 | < 100 |
| C[C@H](N1Cc2cc(-c3ccn4nc(N)c(C(=O)N[C@@H](CO)C5CC5)c4n3)cc(NS(C)(=O)=O)c2C1=O)C(F)(F)F [Example 120, 2-Amino-N-((R)-1-cyclopropyl-2-hydroxyethyl)-5-(7-(methylsulfonamido)-1-oxo-2-((S)-1,1,1-trifluoropropan-2-yl)isoindolin-5-yl)pyrazolo[1,5-a]pyrimidine-3-carboxamide] | < 100 | < 100 |
| C[C@H](N1Cc2cc(-c3ccn4nc(N)c(C(=O)N[C@H]5C[C@H](O)C5)c4n3)cc(NS(C)(=O)=O)c2C1=O)C(F)(F)F [Example 121, 2-Amino-5-{7-methanesulfonamido-1-oxo-2-[(2S)-1,1,1-trifluoropropan-2-yl]-2,3-dihydro-1H-isoindol-5-yl}-N-[trans-3-hydroxycyclobutyl]pyrazolo[1,5-a]pyrimidine-3-carboxamide] | < 100 | < 100 |
| C[C@H](N1Cc2cc(-c3ccn4nc(N)c(C(=O)N[C@H]5CC[C@@](C)(O)CC5)c4n3)cc(NS(C)(=O)=O)c2C1=O)C(F)(F)F [Example 122, 2-Amino-5-{7-methanesulfonamido-1-oxo-2-[(2S)-1,1,1-trifluoropropan-2-yl]-2,3-dihydro-1H-isoindol-5-yl}-N-[cis-4-hydroxy-4-methylcyclohexyl]pyrazolo[1,5-a]pyrimidine-3-carboxamide] | < 100 | < 100 |
| CC[C@H](N1Cc2cc(-c3ccn4nc(N)c(C(=O)NC5COC5)c4n3)cc(NS(C)(=O)=O)c2C1=O)C(F)(F)F [Example 123, 2-Amino-5-{7-methanesulfonamido-1-oxo-2-[(2S)-1,1,1-trifluorobutan-2-yl]-2,3-dihydro-1H-isoindol-5-yl}-N-(oxetan-3-yl)pyrazolo[1,5-a]pyrimidine-3-carboxamide] | < 100 | < 100 |
| CC[C@H](N1Cc2cc(-c3ccn4nc(N)c(C(=O)NC5CC5)c4n3)cc(NS(C)(=O)=O)c2C1=O)C(F)(F)F [Example 124, 2-Amino-N-cyclopropyl-5-{7-methanesulfonamido-1-oxo-2-[(2S)-1,1,1-trifluorobutan-2-yl]-2,3-dihydro-1H-isoindol-5-yl}pyrazolo[1,5-a]pyrimidine-3-carboxamide] | < 100 | < 100 |
| CC[C@H](N1Cc2cc(-c3ccn4nc(N)c(C(=O)NC5(C)COC5)c4n3)cc(NS(C)(=O)=O)c2C1=O)C(F)(F)F [Example 125, 2-Amino-5-{7-methanesulfonamido-1-oxo-2-[(2S)-1,1,1-trifluorobutan-2-yl]-2,3-dihydro-1H-isoindol-5-yl}-N-(3-methyloxetan-3-yl)pyrazolo[1,5-a]pyrimidine-3-carboxamide] | < 100 | < 100 |
| CC[C@H](N1Cc2cc(-c3ccn4nc(N)c(C(=O)N[C@H]5C[C@H](C(C)(C)O)C5)c4n3)cc(NS(C)(=O)=O)c2C1=O)C(F)(F)F [Example 126, 2-Amino-5-{7-methanesulfonamido-1-oxo-2-[(2S)-1,1,1-trifluorobutan-2-yl]-2,3-dihydro-1H-isoindol-5-yl}-N-[trans-3-(2-hydroxypropan-2-yl)cyclobutyl]pyrazolo[1,5-a]pyrimidine-3-carboxamide] | < 100 | < 100 |
| CC[C@H](N1Cc2cc(-c3ccn4nc(N)c(C(=O)N[C@H]5CC[C@](C)(O)CC5)c4n3)cc(NS(C)(=O)=O)c2C1=O)C(F)(F)F [Example 127, 2-Amino-5-{7-methanesulfonamido-1-oxo-2-[(2S)-1,1,1-trifluorobutan-2-yl]-2,3-dihydro-1H-isoindol-5-yl}-N-[trans-4-hydroxy-4-methylcyclohexyl]pyrazolo[1,5-a]pyrimidine-3-carboxamide] | < 100 | < 100 |
| CS(=O)(=O)Nc1cc(-c2ccn3nc(N)c(C(=O)NC4CC4)c3n2)cc2c1C(=O)N([C@@H](C1CC1)C(F)(F)F)C2 [Example 128, 2-Amino-N-cyclopropyl-5-{2-[(1S)-1-cyclopropyl-2,2,2-trifluoroethyl]-7-methanesulfonamido-1-oxo-2,3-dihydro-1H-isoindol-5-yl}pyrazolo[1,5-a]pyrimidine-3-carboxamide] | < 100 | < 100 |
| CS(=O)(=O)Nc1cc(-c2ccn3nc(N)c(C(=O)NC4CC4)c3n2)cc2c1C(=O)N([C@H](C1CC1)C(F)(F)F)C2 [Example 129, 2-Amino-N-cyclopropyl-5-{2-[(1R)-1-cyclopropyl-2,2,2-trifluoroethyl]-7-methanesulfonamido-1-oxo-2,3-dihydro-1H-isoindol-5-yl}pyrazolo[1,5-a]pyrimidine-3-carboxamide] | < 100 | < 100 |
| C[C@@H](C1CC1)N1Cc2cc(-c3ccn4nc(N)c(C(=O)Nc5cnn(C)c5)c4n3)cc(S(C)(=O)=O)c2C1=O [Example 130, 2-Amino-5-{2-[(1S)-1-cyclopropylethyl]-7-methanesulfonyl-1-oxo-2,3-dihydro-1H-isoindol-5-yl}-N-(1-methyl-1H-pyrazol-4-yl)pyrazolo[1,5-a]pyrimidine-3-carboxamide] | < 100 | < 100 |
| C[C@@H](C1CC1)N1Cc2cc(-c3ccn4nc(N)c(C(=O)N[C@H]5CC[C@@](C)(O)CC5)c4n3)cc(S(C)(=O)=O)c2C1=O [Example 131, 2-Amino-5-{2-[(1S)-1-cyclopropylethyl]-7-methanesulfonyl-1-oxo-2,3-dihydro-1H-isoindol-5-yl}-N-[cis-4-hydroxy-4-methylcyclohexyl]pyrazolo[1,5-a]pyrimidine-3-carboxamide] | < 100 | < 100 |
| C[C@@H](C1CC1)N1Cc2cc(-c3ccn4nc(N)c(C(=O)NC5CC5)c4n3)cc(S(C)(=O)=O)c2C1=O [Example 132, 2-Amino-N-cyclopropyl-5-{2-[(1S)-1-cyclopropylethyl]-7-methanesulfonyl-1-oxo-2,3-dihydro-1H-isoindol-5-yl}pyrazolo[1,5-a]pyrimidine-3-carboxamide] | < 100 | < 100 |
| CCS(=O)(=O)c1cc(-c2ccn3nc(N)c(C(=O)NC4CC4)c3n2)cc2c1C(=O)N([C@@H](C)C1CC1)C2 [Example 133, 2-Amino-N-cyclopropyl-5-{2-[(1S)-1-cyclopropylethyl]-7-(ethanesulfonyl)-1-oxo-2,3-dihydro-1H-isoindol-5-yl}pyrazolo[1,5-a]pyrimidine-3-carboxamide] | < 100 | < 100 |
| C[C@@H](C1CC1)N1Cc2cc(-c3ccn4nc(N)c(C(=O)NC5CC5)c4n3)cc(S(=O)(=O)CC3CC3)c2C1=O [Example 135, 2-Amino-N-cyclopropyl-5-{2-[(1S)-1-cyclopropylethyl]-7-cyclopropylmethanesulfonyl-1-oxo-2,3-dihydro-1H-isoindol-5-yl}pyrazolo[1,5-a]pyrimidine-3-carboxamide] | < 100 | < 100 |
| C[C@@H](C1CC1)N1Cc2cc(-c3ccn4nc(N)c(C(=O)NC5CC5)c4n3)cc(S(=O)(=O)C3CCC3)c2C1=O [Example 136, 2-Amino-5-[7-(cyclobutanesulfonyl)-2-[(1S)-1-cyclopropylethyl]-1-oxo-2,3-dihydro-1H-isoindol-5-yl]-N-cyclopropylpyrazolo[1,5-a]pyrimidine-3-carboxamide] | < 100 | < 100 |
| C[C@@H](C1CC1)N1Cc2cc(-c3ccn4nc(N)c(C(=O)NC5CC5)c4n3)cc(S(=O)(=O)C3CCCC3)c2C1=O [Example 137, 2-Amino-5-[7-(cyclopentanesulfonyl)-2-[(1S)-1-cyclopropylethyl]-1-oxo-2,3-dihydro-1H-isoindol-5-yl]-N-cyclopropylpyrazolo[1,5-a]pyrimidine-3-carboxamide] | < 100 | < 100 |
| C[C@@H](C1CC1)N1Cc2cc(-c3ccn4nc(N)c(C(=O)NC5CC5)c4n3)cc(S(=O)(=O)C3CCCCC3)c2C1=O [Example 138, 2-Amino-5-[7-(cyclohexanesulfonyl)-2-[(1S)-1-cyclopropylethyl]-1-oxo-2,3-dihydro-1H-isoindol-5-yl]-N-cyclopropylpyrazolo[1,5-a]pyrimidine-3-carboxamide] | < 100 | < 100 |
| CNS(=O)(=O)c1cc(-c2ccn3nc(N)c(C(=O)NC4CC4)c3n2)cc2c1C(=O)N([C@@H](C)C(F)(F)F)C2 [Example 139, 2-Amino-N-cyclopropyl-5-[7-(methylsulfamoyl)-1-oxo-2-[(2S)-1,1,1-trifluoropropan-2-yl]-2,3-dihydro-1H-isoindol-5-yl]pyrazolo[1,5-a]pyrimidine-3-carboxamide] | < 100 | < 100 |
